# Source: patent US20210069295A1, “GALECTINS CONTROL MTOR IN RESPONSE TO ENDOMEMBRANE DAMAGE AND PROVIDE A MECHANISM AND TARGET FOR THE TREATMENT OF AUTOPHAGY-RELATED DISEASES” (STC. UNM, priority 2017, published 2021)
# Peptide text beside a SMILES is read from it.
# Test system: Gal8 and Gal9
# Assay: Galectin puncta formation by high-content microscopy in HeLa cells
# Format: cell-based
# Conditions: HeLa cells overexpressing GFP-Gal8 or GFP-Gal9, 100 μM, 1 h full medium
# Procedure: (A) Analysis of the puncta formation of galectins in response to GPN. HeLa cells overexpressing YFP-fused with the indicated galectins were treated with 100 μM GPN or without (Ctrl) in full medium for 1 h and galectin puncta were quantified by HC. […] White masks, algorithm defined cell boundaries (primary objects); green masks, computer-identified galectins puncta (target objects). Data, means±SEM, n≥3 independent experiments (500 primary objects counted per well; ≥5 wells/sample per each experiment); *p<0.05, **p<0.01, † p≥0.05, ANOVA. (B) Immunoprecipitation analysis of the interactions between galectins and mTOR or RagA GTPase. HEK293T cells overexpressing FLAG-tagged galectins were subjected to anti-FLAG immunoprecipitation followed by immunoblotting for endogenous mTOR or RagA. (C) Immunoprecipitation analysis of interactions between Gal8 and mTOR protein complexes in response to GPN treatment. […] Biotinylated proteins from HEK293T cell expressing APEX2-vector or APEX2-Gal8, after GPN and biotin phenol (BP) treatment were affinity-enriched by binding to streptavidin-beads, and samples were analyzed by immunoblotting analysis for endogenous RagA, p14, mTOR or Raptor. […]
# (A) HC analysis of the puncta of galectins in response to chloroquine, Bafilomycin A1 and GPN. HeLa cells overexpressing GFP-Gal8 or GFP-Gal9 were treated with 100 μM chloroquine (CQ), […] (BAF) or 100 μM GPN in full medium for 1 h, and the puncta of GFP-Gal8 or GFP-Gal9 were quantified by HC. […] Data, means±SEM, n≥3 independent experiments (500 primary objects counted per well; ≥5 wells/sample per each experiment), † p≥0.05, **p<0.01, ANOVA. […] HeLa cells expressing GFP-Gal8 were treated with 100 μM GPN in full medium for 1 h, and the overlap between GFP-Gal8 and LAMP2 were quantified by HC. […] Data, means±SEM, n≥3 independent experiments (500 primary objects counted per well; ≥5 wells/sample per each experiment), **p<0.01, ANOVA. […]
smiles,measurement,value
"NCC(=O)N[C@@H](Cc1ccccc1)C(=O)Nc1ccc2ccccc2c1 [GPN, glycyl-L-phenylalanine 2-naphththylamide] (HELM PEPTIDE1{G.F.[c1ccc2cc(N[*:1])ccc2c1]}$$$$V2.0)",Gal8 and Gal9 puncta formation,formed puncta
